In US9663473B2 (Actelion Pharmaceuticals Ltd, priority 2013, dated 2017) one finds EC50 data, which are given here for 31 compounds.

For the assay, the target named is T1, recombinant human ALX receptor (Homo sapiens, UniProt P25090).
T1 construct: expressed in transfected cells; host or cells: HEK293 (HEK293-hALXR-Gα16)
T1 sequence (P25090 1-351): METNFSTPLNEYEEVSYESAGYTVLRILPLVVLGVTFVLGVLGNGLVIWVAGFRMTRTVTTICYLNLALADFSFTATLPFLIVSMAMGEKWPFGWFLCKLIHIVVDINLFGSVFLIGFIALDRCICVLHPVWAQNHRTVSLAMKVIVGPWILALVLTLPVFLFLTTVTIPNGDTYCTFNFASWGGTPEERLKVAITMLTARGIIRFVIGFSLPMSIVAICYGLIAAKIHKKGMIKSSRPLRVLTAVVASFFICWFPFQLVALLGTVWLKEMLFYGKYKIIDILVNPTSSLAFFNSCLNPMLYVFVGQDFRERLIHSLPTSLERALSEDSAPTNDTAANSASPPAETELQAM
Put plainly: Intracellular calcium measurements (FLIPR), ALX receptor agonistic activity. The class given is cell-based. Particulars: HEK293-hALXR-Gα16 cells, Fluo-4 calcium signal, normalized to WKYMVm 10 nM. An outline of the steps: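 HEK293 cells co-expressing human ALX receptor and Gα16 were loaded with 1 μM Fluo-4 AM for 60 min at 37° C., then exposed to serially diluted compounds on FLIPR Tetra. Peak fluorescence above baseline (ex 488/em 540 nm) was normalized to 10 nM WKYMVm as high control.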
On the technique in general: Calcium flux is commonly read through the fluorescence of an indicator in the cells.
What is called EC50 is the concentration at which the effect is half-maximal. On to `COc1ccc(C[C@@H](NC(=O)Nc2cc(C)n(C)n2)c2nc3ccccc3[nH]2)cc1` [Example 7, (R)-1-(1-(1H-Benzo[d]imidazol-2-yl)-2-(4-methoxyphenyl)ethyl)-3-(1,5-dimethyl-1H-pyrazol-3-yl)urea], for which the EC50 amounted to 315 nM.

For `COc1ccc(C[C@@H](NC(=O)NCc2ccc(CN(C)C)cc2)c2nc3ccccc3[nH]2)cc1` [Example 272, (R)-1-(1-(1H-Benzo[d]imidazol-2-yl)-2-(4-methoxyphenyl)ethyl)-3-(4-((dimethylamino)methyl)benzyl)urea], the EC50 was determined as 339 nM.

Consider `COc1ccc(C[C@@H](NC(=O)NCc2ccccc2)c2nc3ccccc3[nH]2)cc1` [Example 392, (R)-1-(1-(1H-Benzo[d]imidazol-2-yl)-2-(4-methoxyphenyl)ethyl)-3-benzylurea], for which the EC50 was 2410 nM.

Turning to `COc1ccc(C[C@@H](NC(=O)NCc2ccccc2Cl)c2nc3ccccc3[nH]2)cc1` [Example 207, (R)-1-(1-(1H-Benzo[d]imidazol-2-yl)-2-(4-methoxyphenyl)ethyl)-3-(2-chlorobenzyl)urea], the concentration giving a half-maximal response (EC50) stood at 835 nM.

In the case of `COc1ccc(C[C@@H](NC(=O)N[C@@H]2CCC[C@@H]2O)c2nc3ccccc3[nH]2)cc1` [Example 21, 1-((R)-1-(1H-Benzo[d]imidazol-2-yl)-2-(4-methoxyphenyl)ethyl)-3-((1R,2S)-2-hydroxycyclopentyl)urea], the 50% effective concentration (EC50) amounted to 29 nM.

Consider `COc1ccc(C[C@@H](NC(=O)N[C@H]2CCCC[C@H]2C(N)=O)c2nc3ccccc3[nH]2)cc1` (relative stereo) [Example 18, (1R*,2S*)-2-(3-((R)-1-(1H-Benzo[d]imidazol-2-yl)-2-(4-methoxyphenyl)ethyl)ureido)cyclohexanecarboxamide], for which the concentration giving a half-maximal response (EC50) amounted to 29 nM.

As for `COc1c(F)cc(CC(NC(=O)N[C@H]2CC[C@](C)(O)CC2)c2nc3ccccc3[nH]2)cc1F` (mixture of isomers) [Example 243, 1-(1-(1H-Benzo[d]imidazol-2-yl)-2-(3,5-difluoro-4-methoxyphenyl)ethyl)-3-(trans-4-hydroxy-4-methylcyclohexyl)urea], the EC50 was 155 nM.

On to `COc1ccc(CC(NC(=O)Nc2ccnn2-c2ccncc2)c2nc3ccccc3[nH]2)cc1` (stereo not shown) [Example 409, 1-(1-(1H-benzo[d]imidazol-2-yl)-2-(4-methoxyphenyl)ethyl)-3-(1-(pyridin-4-yl)-1H-pyrazol-5-yl)urea], for which the EC50 was 362 nM.

`COc1ccc(CC(NC(=O)NC23CCC(O)(CC2)CC3)c2nc3ccccc3[nH]2)c(F)c1` (stereo not shown) [Example 233, 1-(1-(1H-Benzo[d]imidazol-2-yl)-2-(2-fluoro-4-methoxyphenyl)ethyl)-3-(4-hydroxybicyclo[2.2.2]octan-1-yl)urea]: the EC50 amounted to 3.7 nM.

`COc1ccc(C[C@@H](NC(=O)NC[C@H](O)c2ccccc2)c2nc3ccccc3[nH]2)cc1` [Example 290, 1-((R)-1-(1H-Benzo[d]imidazol-2-yl)-2-(4-methoxyphenyl)ethyl)-3-((R)-2-hydroxy-2-phenylethyl)urea]: the 50% effective concentration (EC50) turned out to be 37 nM.

As for `COc1ccc(C[C@@H](NC(=O)NCc2cccc(Cl)c2Cl)c2nc3ccccc3[nH]2)cc1` [Example 307, (R)-1-(1-(1H-Benzo[d]imidazol-2-yl)-2-(4-methoxyphenyl)ethyl)-3-(2,3-dichlorobenzyl)urea], the EC50 turned out to be 50 nM.

On to `COc1ccc(C[C@@H](NC(=O)NCc2ncc(Br)cc2F)c2nc3ccccc3[nH]2)cc1` [Example 291, (R)-1-(1-(1H-Benzo[d]imidazol-2-yl)-2-(4-methoxyphenyl)ethyl)-3-((5-bromo-3-fluoropyridin-2-yl)methyl)urea], for which the EC50 worked out at 439 nM.

As to `COc1ccc(C[C@@H](NC(=O)NC2CCN(C3CC3)CC2)c2nc3ccccc3[nH]2)cc1` [Example 71, (R)-1-(1-(1H-Benzo[d]imidazol-2-yl)-2-(4-methoxyphenyl)ethyl)-3-(1-cyclopropylpiperidin-4-yl)urea], the EC50 came to 53 nM.

Regarding `COc1ccc(C[C@@H](NC(=O)N[C@H]2CCc3ccccc32)c2nc3ccccc3[nH]2)cc1` [Example 20, 1-((R)-1-(1H-Benzo[d]imidazol-2-yl)-2-(4-methoxyphenyl)ethyl)-3-((S)-2,3-dihydro-1H-inden-1-yl)urea], the 50% effective concentration (EC50) turned out to be 712 nM.

As for `COc1ccc(C[C@@H](NC(=O)NCCc2cccnc2)c2nc3ccccc3[nH]2)cc1` [Example 280, (R)-1-(1-(1H-Benzo[d]imidazol-2-yl)-2-(4-methoxyphenyl)ethyl)-3-(2-(pyridin-3-yl)ethyl)urea], the half-maximal effective concentration (EC50) turned out to be 250 nM.

With `COc1ccc(C[C@@H](NC(=O)N[C@@H]2CCN(C(=O)OC(C)(C)C)C2)c2nc3ccccc3[nH]2)cc1` [Example 118, (R)-tert-Butyl 3-(3-((R)-1-(1H-benzo[d]imidazol-2-yl)-2-(4-methoxyphenyl)ethyl)ureido)pyrrolidine-1-carboxylate], the EC50 was found to be 25 nM.

`COc1ccc(C[C@@H](NC(=O)NC2(c3ccc(Br)cc3)CC2)c2nc3ccccc3[nH]2)cc1` [Example 340, (R)-1-(1-(1H-Benzo[d]imidazol-2-yl)-2-(4-methoxyphenyl)ethyl)-3-(1-(4-bromophenyl)cyclopropyl)urea]: the half-maximal effective concentration (EC50) was 268 nM.

`COc1ccc(C[C@@H](NC(=O)NCCC2CCNCC2)c2nc3ccccc3[nH]2)cc1` [Example 156, (R)-1-(1-(1H-Benzo[d]imidazol-2-yl)-2-(4-methoxyphenyl)ethyl)-3-(2-(piperidin-4-yl)ethyl)urea]: the EC50 worked out at 94 nM.

In the case of `COc1ccc(C[C@@H](NC(=O)NC2(c3ccc(C(F)(F)F)cc3)CC2)c2nc3ccccc3[nH]2)cc1` [Example 358, (R)-1-(1-(1H-Benzo[d]imidazol-2-yl)-2-(4-methoxyphenyl)ethyl)-3-(1-(4-(trifluoromethyl)phenyl)cyclopropyl)urea], the EC50 is 176 nM.

Take `COC[C@H](NC(=O)N[C@H](Cc1ccc(OC)cc1)c1nc2ccccc2[nH]1)c1ccccc1` [Example 201, 1-((R)-1-(1H-Benzo[d]imidazol-2-yl)-2-(4-methoxyphenyl)ethyl)-3-((R)-2-methoxy-1-phenylethyl)urea]: the EC50 is 54 nM.

With `COc1ccc(C[C@@H](NC(=O)N[C@@H](C)C2CCCCC2)c2nc3ccccc3[nH]2)cc1` [Example 347, 1-((R)-1-(1H-Benzo[d]imidazol-2-yl)-2-(4-methoxyphenyl)ethyl)-3-((S)-1-cyclohexylethyl)urea], the EC50 turned out to be 365 nM.

Regarding `COc1ccc(C[C@@H](NC(=O)NCCC2CCN(C)CC2)c2nc3ccccc3[nH]2)cc1` [Example 160, (R)-1-(1-(1H-Benzo[d]imidazol-2-yl)-2-(4-methoxyphenyl)ethyl)-3-(2-(1-methylpiperidin-4-yl)ethyl)urea], the EC50 stood at 151 nM.

With `COc1ccc(CC(NC(=O)N[C@H]2CC[C@H](O)CC2)c2nc3cc(C(F)(F)F)ccc3[nH]2)cc1` (relative stereo) [Example 82, 1-(trans-4-Hydroxycyclohexyl)-3-(2-(4-methoxyphenyl)-1-(5-(trifluoromethyl)-1H-benzo[d]imidazol-2-yl)ethyl)urea], the EC50 amounted to 2.3 nM.

With `COc1ccc(CC(NC(=O)NC23CCC(O)(CC2)CC3)c2nc3ccc(F)cc3[nH]2)cc1F` (single isomer, unassigned; ent-1) [Example 319, 1-(1-(6-Fluoro-1H-benzo[d]imidazol-2-yl)-2-(3-fluoro-4-methoxyphenyl)ethyl)-3-(4-hydroxybicyclo[2.2.2]octan-1-yl)urea (ent-1)], the EC50 was 1 nM.

For `COc1ccc(C[C@@H](NC(=O)NC2CC2)c2nc3ccccc3[nH]2)cc1` [Example 19, (R)-1-(1-(1H-Benzo[d]imidazol-2-yl)-2-(4-methoxyphenyl)ethyl)-3-cyclopropylurea], the EC50 was determined as 600 nM.

Turning to `COc1ccc(CC(NC(=O)NC2CCN(C)CC2)c2nc3ccccc3[nH]2)cc1` (stereo not shown) [Example 49, 1-(1-(1H-Benzo[d]imidazol-2-yl)-2-(4-methoxyphenyl)ethyl)-3-(1-methylpiperidin-4-yl)urea], the EC50 worked out at 85 nM.

Regarding `COCC(Cc1ccccc1)NC(=O)N[C@H](Cc1ccc(OC)cc1)c1nc2ccccc2[nH]1` (stereo partly drawn) [Example 70, 1-((R)-1-(1H-Benzo[d]imidazol-2-yl)-2-(4-methoxyphenyl)ethyl)-3-(1-methoxy-3-phenylpropan-2-yl)urea], the EC50 stood at 17 nM.

`COc1ccc(CC(NC(=O)Nc2cc(C)on2)c2nc3ccccc3[nH]2)cc1` (stereo not shown) [Example 401, 1-(1-(1H-Benzo[d]imidazol-2-yl)-2-(4-methoxyphenyl)ethyl)-3-(5-methylisoxazol-3-yl)urea]: the EC50 was 372 nM.

Regarding `COc1ccc(CC(NC(=O)NCCCN(C)C)c2nc3ccccc3[nH]2)cc1` (stereo not shown) [Example 388, 1-(1-(1H-Benzo[d]imidazol-2-yl)-2-(4-methoxyphenyl)ethyl)-3-(3-(dimethylamino)propyl)urea], the EC50 was 1070 nM.

In the case of `COc1ccc(C[C@@H](NC(=O)NC(C)(C)c2ccc(Cl)cc2)c2nc3ccccc3[nH]2)cc1` [Example 352, (R)-1-(1-(1H-Benzo[d]imidazol-2-yl)-2-(4-methoxyphenyl)ethyl)-3-(2-(4-chlorophenyl)propan-2-yl)urea], the EC50 is 372 nM.

Consider `COc1cc(F)c(CC(NC(=O)N[C@H]2CC[C@H](O)CC2)c2nc3ccccc3[nH]2)c(F)c1` (single isomer, unassigned; ent-1) [Example 316, 1-(1-(1H-Benzo[d]imidazol-2-yl)-2-(2,6-difluoro-4-methoxyphenyl)ethyl)-3-(trans-4-hydroxycyclohexyl)urea (ent-1)], for which the EC50 was found to be 3.2 nM.
